Data on 20 compounds can be found in patent US20110212955A1, “ROSAMINE DERIVATIVES AS AGENTS FOR THE TREATMENT OF CANCER” (CANCER RESEARCH INITIATIVES FOUNDATION, priority 2008, published 2011).

For orientation: IC50 means the midpoint of a concentration-inhibition curve.

Several values for one entry are separate records, joined by “and”; a condition that tells them apart may be missing. Identical values can stand only once. Like-named read-outs stand apart in the source and are kept apart here.

Data set [1] relates to HL60. The experiment in a line: In vitro antiproliferative MTT assay in HL60, 24 h endpoint. It is filed as cell-based, human. Conditions: triplicate determination; for IC50: read-out: IC50 (μM) ± S.D. in HL60. How it is done: In vitro proliferation assay. Approximately 3 000-5 000 (15 000 cells for HL-60) exponentially growing cells were seeded in each well of a 96-well plate with 50 μl of medium and were allowed to adhere overnight. Cells were then treated with each compound at concentrations ranging from 0.01-10 μM giving the final volume of 100 μl in each well. At the end of incubation period, 15 μl of MTT solution (5.0 mg/ml in PBS) was added and incubated for an additional 4 h. Medium and excessive MTT were aspirated and formazan formed was solubilized with 100 μl of DMSO. Absorbance, as a measurement of viable cell number was read at 570 nm with ThermoLabsystems OpsysMR microplate spectrometer. At least three independent experiments were performed and results are presented as an average.
For orientation: Formazan colour is commonly taken as a measure of viable cells.

A short description of data set [2]: Fluorescence quantum yield. It is filed as physicochemical. Conditions: for fluorescence quantum yield: in ethanol, unpublished data. How it is done: Steady-state fluorescence spectroscopic studies were performed on a Cary Eclipse fluorometer. The slit width was 5 nm for both excitation and emission. The relative quantum yields of the samples were obtained by comparing the area under the corrected emission spectrum of the test sample with that of a standard. The quantum efficiencies of fluorescence were obtained from multiple measurements (N=3) with the following equation:
Φx=Φst(Ix/Ist)(Ast/Ax)(ηx^2/ηst^2)
Where Φst is the reported quantum yield of the standard, I is the area under the emission spectra, A is the absorption at the excitation wavelength and η is the refractive index of the solvent used, measured on a pocket refractometer from ATAGO. X subscript denotes test sample, and st denotes standard.

For data set [3], the system named is HK1. The experiment in a line: In vitro anti-proliferative MTT assay, 48 h, HK1. It is filed as cell-based, human. The conditions noted are these: HK1, nasopharyngeal, 48 h post-treatment, read-out: IC50 (μM) ± S.D., HK1. An excerpt: (§1) In vitro proliferation assay.
For data set [4], the system named is MCF-7. The experiment in a line: In vitro anti-proliferative MTT assay, 48 h, MCF-7. The conditions noted are these: MCF-7, breast, 48 h post-treatment, read-out: IC50 (μM) ± S.D., MCF-7. It is filed as cell-based, human.
Source text: as §1

In data set [5] the test system is carcinoma cell types. The conditions noted are these: in vitro; cited from earlier work.
Data set [6] relates to NP69. In words: In vitro anti-proliferative MTT assay, 48 h, NP69 immortalized normal nasopharyngeal epithelial cells. The conditions noted are these: immortalized normal human epithelial cells, read-out: IC50 (μM) ± S.D., NP69. It is filed as cell-based.
Source text: as §1

Data set [7] concerns HSC2. The experiment in a line: In vitro anti-proliferative MTT assay, 48 h, HSC2. It is filed as cell-based, human. The conditions noted are these: HSC2, oral, 48 h post-treatment, read-out: IC50 (μM) ± S.D., HSC2.
Source text: as §1

In data set [8] the test system is OKF6. In words: In vitro anti-proliferative MTT assay, 48 h, OKF6 immortalized normal oral keratinocytes. It is filed as cell-based. Conditions: immortalized normal human epithelial cells, read-out: IC50 (μM) ± S.D., OKF6.
Source text: as §1

Data set [9] concerns HCT116. The experiment in a line: In vitro anti-proliferative MTT assay, 48 h, HCT116. Conditions: HCT116, colon, 48 h post-treatment, read-out: IC50 (μM) ± S.D., HCT116. It is filed as cell-based, human.
Source text: as §1

Data set [10] relates to non-tumorigenic epithelial cell types. The conditions noted are these: in vitro, similar concentrations; cited from earlier work.
Data set [11] relates to whole animal tumor models. The conditions noted are these: a number of whole animal tumor models; cited from earlier work.
Data set [12] relates to transformed mouse mammary epithelial cells. The conditions noted are these: cells with increased mitochondrial transmembrane potential; cited from earlier work.
Data set [13] relates to A6-derived subcutaneous tumors. Conditions: nude mice, intraperitoneal injection; cited from earlier work.
The test system of data set [14] is cancer cells. Conditions: cited from earlier work.
Data set [15] relates to carcinoma. Conditions: cited from earlier work.
For data set [16], the system named is HSC2 cells. Conditions: 100 nM. The procedure:
Cellular localization. HSC2 cells grown on round glass coverslips in 12-well plate were co-incubated with 100 nM of compound 11 together with organelle-specific fluorescence probes. The endoplasmic reticulum was labeled with 100 nM of ER-Tracker Blue-White DPX, the lysosomes were stained with 500 nM of LysoTracker Blue DND-22, and the mitochrondria was tracked with 100 nM of Rh123 respectively for 15-30 min of incubation at room temperature. After incubation, cells were gently rinsed in PBS to remove free dyes, and the stained cells were observed using Olympus DSU spinning disk confocal microscope configured with a PlanApo x63 oil objective and iXon EM+(Andor Technology) digital camera. Fluorescent images of X-Y sections at 0.2 μm were collected sequentially using Olympus Cell^R software. Organelle-specific fluorescence probes were respectively excited at 365 nm to illuminate ER-tracker and LysoTracker, at 494 nm for Rh123 and at 575 nm for compound 11.

Data set [17] has as its system HSC2 cells. The conditions noted are these: 0.5 μM. The procedure: AnnexinV-FITC apoptosis analysis. HSC2 cells grown in 60-mm dishes at 50% confluency were treated with 0.5 μM of compound 11. At various treatment intervals, floating cells in the medium were pooled together with the adherent cells after trypsinization and were washed twice with cold PBS. The cells were resuspended with 1× binding buffer at 1×10^6 cells/ml. A 100 μl of cell suspension was transferred to a 5 ml tube followed by […] of AnnexinV-FITC and […] of propidium iodide (200 μg/ml in PBS). The cells were gently mixed and incubated for 15 min at RT in the dark before analysed on a FACSCalibur flow cytometer with 488 nm argon laser. The fluorescence data of 10 000 cells were collected with the FL1 detector with 530/30 band pass filter to collect Annexin-FITC fluorescence, and the FL3 detector with a 630 nm long pass filter to collect propidium iodide fluorescence.

The subject of data set [18] is HSC2 cells. Conditions: IC50 concentration (0.25 μM), 4 h to 48 h. The procedure: Cell cycle analysis. HSC2 cells were treated and collected as above. Cells were then fixed in 70% ice-cold ethanol (v/v in PBS) overnight at 4° C. Following fixation, the cells were washed twice in cold PBS. The pellet was then resuspended in PBS solution containing 20 μg/ml RNase A and 1 μM SYTOX Green for 30 min. The cells were analysed on a FACSCalibur flow cytometer with 488 nm argon laser. The DNA-SYTOX Green fluorescence of 10 000 cells were collected with the FL1 detector with 530/30 band pass filter.

Setting [19] is: Homo sapiens, HL-60, HL60, 24 h post-treatment.

In the case of `Cc1ccccc1-c1c2ccc(=[N+]3CCOCC3)cc-2oc2cc(N3CCOCC3)ccc12.[Cl-]` [Compound 4], in [1] (HL60, 24 h post-treatment), the “IC50 (μM) ± S.D. in HL60” value was “moderate to poor activity” and the IC50 was found to be 8.27 µM.

Turning to `Cc1ccccc1-c1c2ccc(=[N+]3CCCC3)cc-2oc2cc(N3CCCC3)ccc12` [Compound 1], the IC50 in [1] (HL60, 24 h post-treatment) came to 0.72 ± 0.09 µM.

Consider `Cc1ccccc1-c1c2ccc(=[N+]3CCOCC3)cc-2oc2cc(N3CCCCC3)ccc12.[Cl-]` [Compound 3], for which, in [1] (HL60, 24 h post-treatment), the “IC50 (μM) ± S.D. in HL60” value is recorded as “lowest IC50 value among compounds 1-6” and the IC50 is 0.35 ± 0.01 µM.

As for `Cc1c2ccc(=[N+]3CCCCC3)cc-2oc2cc(N3CCCCC3)ccc12.[Cl-]` [Compound 7], in [1] (HL60, 24 h post-treatment), the “IC50 (μM) ± S.D. in HL60” value is recorded as “moderate to poor activity” and the IC50 was 3.86 ± 1.46 µM.

As for `COc1ccccc1-c1c2ccc(=[N+]3CCCCC3)cc-2oc2cc(N3CCCCC3)ccc12` [Compound 13], the IC50 in [1] (HL60, 24 h post-treatment) stood at 0.95 ± 0.01 µM.

The compound `O=C(O)COc1cccc(OCC(=O)O)c1-c1c2ccc(=[N+]3CCCCC3)cc-2oc2cc(N3CCCCC3)ccc12` [Compound 16] yielded a quantum yield in data set [2] (in phosphate buffer) of 0.13. Also, the “IC50 (μM) ± S.D. in HL60” value in data set [1] (HL60, 24 h post-treatment) is reported as “moderate to poor activity”. The IC50 in [1] (setting [19]) was more than 100 µM.

As to `Oc1cccc(O)c1-c1c2ccc(=[N+]3CCCCC3)cc-2oc2cc(N3CCCCC3)ccc12` [Compound 15], the “IC50 (μM) ± S.D. in HL60” value in data set [1] (HL60, 24 h post-treatment) is “moderate to poor activity”. Also, the IC50 in data set [1] (setting [19]) is 2.91 ± 1.86 µM.

In the case of `c1ccc(Cc2c3ccc(=[N+]4CCCCC4)cc-3oc3cc(N4CCCCC4)ccc23)cc1` [Compound 8], the IC50 in [1] (HL60, 24 h post-treatment) was determined as 0.82 ± 0.04 µM.

As to `COC(=O)c1ccccc1-c1c2ccc(=N)cc-2oc2cc(N)ccc12.Cl` [Rh123, rhodamine 123, reference compound], the IC50 in data set [3] was 5.86 ± 0.15 µM; in [4], 5.61 ± 0.61 µM; in data set [6], 6.28 ± 0.21 µM; in [7], 4.48 ± 2.23 µM; in [8], 9.84 ± 3.46 µM; in data set [9], 7.92 ± 0.95 µM. Moreover, in data set [5], the “carcinoma cell types in which cell death was markedly induced” value is 9/9. In addition, the “non-tumorigenic epithelial cell types that remained unaffected” value in [10] is 6/6.

On to `Cc1ccccc1-c1c2ccc(=[N+]3CCN(C(=O)OC(C)(C)C)CC3)cc-2oc2cc(N3CCN(C(=O)OC(C)(C)C)CC3)ccc12` [Compound 5], for which the IC50 in [1] (HL60, 24 h post-treatment) is 0.62 ± 0.07 µM.

Turning to `Cc1ccccc1-c1c2ccc(=[N+]3CCNCC3)cc-2oc2cc(N3CCNCC3)ccc12.[Cl-]` [Compound 6], in data set [1] (HL60, 24 h post-treatment), the “IC50 (μM) ± S.D. in HL60” value is listed as “moderate to poor activity”; the IC50 was 36.7 µM and 53.3 µM.

Turning to `COc1cccc(OC)c1-c1c2ccc(=[N+]3CCCCC3)cc-2oc2cc(N3CCCCC3)ccc12` [Compound 14], the IC50 in data set [1] (HL60, 24 h post-treatment) stood at 0.25 ± 0.22 µM.

Turning to `Cc1cc(N)c2ccccc2[n+]1CCCCCCCCCC[n+]1c(C)cc(N)c2ccccc21` [dequalinium chloride], in [11], the “activity in whole animal tumor models” value was “anti-carcinoma activity”.

`C[n+]1ccc(/C=C/c2c[nH]c3ccccc23)cc1.[I-]` [Compound F16]: the “proliferation of transformed mouse mammary epithelial cells” value in data set [12] was “selectively inhibited proliferation”. The “growth of A6-derived subcutaneous tumors” value in data set [13] is recorded as “retard the growth”.

For `CCn1c(=O)/c(=C2\Sc3ccccc3N2C)s/c1=C\c1cccc[n+]1CC.[Cl-]` [MKT-077], the “growth of cancer cells in vitro and in vivo” value in [14] is “significantly inhibit growth”. Further, the “accumulation in tumor cell mitochondria” value in [15] (clinical study) is “preferentially accumulated in tumor cell mitochondria”. Also, the clinical efficacy result in data set [15] (phase II, approved dosage and drug regimen) is recorded as “lack of efficacy”.

With `Ic1ccc(-c2c3ccc(=[N+]4CCCCC4)cc-3oc3cc(N4CCCCC4)ccc23)cc1.[Cl-]` [Compound 11], in data set [2], the fluorescence quantum yield was determined as 0.28 ± 0.01. In addition, the IC50 amounted to 0.42 ± 0.06 µM in data set [3]; 0.39 ± 0.22 µM in [4]; 0.51 ± 0.16 µM in data set [6]; 0.25 ± 0.12 µM in [7]; 0.41 ± 0.07 µM in [8]; 0.09 µM in [1] (HL60, 24 h post-treatment). In data set [9], the IC50 was 0.39 ± 0.11 µM. The “presence of compound in the nucleus” value in data set [16] is reported as “remained free of compound 11”. In data set [16], the “staining of the cytoplasmic or nuclear membrane” value is on record as “not detected”. The “co-localisation with ER and lysosomes” value in data set [16] (ER-Tracker and LysoTracker) is given as “only partial co-localisation”. Further, the figures for the “cells staining positive for annexin V” value in data set [17] (0 h or 4 h time-points) and in data set [17] (8 h of compound incubation) were “less than 10%” and 16%, respectively. For the same compound, the “proportion of cells undergoing apoptosis” value in data set [17] (within 24 h) stood at 58%. Also, the cell cycle profile entry in data set [18] was “remained unchanged”.

For `[Cl-].c1csc(-c2c3ccc(=[N+]4CCCCC4)cc-3oc3cc(N4CCCCC4)ccc23)c1` [Compound 10], the fluorescence quantum yield in data set [2] is given as 0.10 ± 0.01. Also, the IC50 in [3] worked out at 0.09 ± 0.01 µM; in data set [4], 0.27 ± 0.16 µM; in data set [6], 0.33 ± 0.2 µM; in data set [7], 0.12 ± 0.09 µM; in data set [8] it was 0.25 ± 0.1 µM; in data set [1] (HL60, 24 h post-treatment), 0.1 µM. In addition, the IC50 in data set [9] is 0.15 ± 0.06 µM.

On to `Cc1ccccc1-c1c2ccc(=[N+]3CCCCC3)cc-2oc2cc(N3CCCCC3)ccc12` [Compound 2], for which the IC50 in data set [1] (HL60, 24 h post-treatment) amounted to 0.76 ± 0.03 µM.

As to “3-ethyl-3′-methyl-thiatelluracarbocyanine iodide”, the “activity in whole animal tumor models” value in data set [11] was “anti-carcinoma activity”.

Regarding `COc1ccc(-c2c3ccc(=[N+]4CCCCC4)cc-3oc3cc(N4CCCCC4)ccc23)cc1` [Compound 12], the IC50 in data set [1] (HL60, 24 h post-treatment) is 0.66 ± 0.17 µM.
